Experimental data published in patent publication US10919941B2, “Functional lipid constructs” (KODE BIOTECH LIMITED, priority 2007, dated 2021).
No end group written: not given here.

Columns and labels:
CSL monoclonal anti-A = test: BioVue serology of RBCs modified with Atri-lipid constructs against anti-A; format: cell-based; design: key: 0 or ‘−’ no agglutination; 0 or ‘−’ no agglutination; 1+ or 3=very weak agglutination; 1+ or 3=very weak agglutination; 2+ or 5=weak agglutination; 2+ or 5=weak agglutination; 3+ or 8=moderate strong agglutination; 3+ or 8=moderate strong agglutination; 4+ or 10/12=strong agglutination; 4+ or 10/12=strong agglutination; 4+ or 10/12=strong agglutination
Procedure: To test the hypothesis solutions of four different trisaccharide (Atri)-lipid constructs were prepared as 50 μM, 10 μM and 5 μM solutions in Celpresol™. Modified red blood cells were then prepared by contacting 0.6 mls (pcv) of washed RBCs with 0.6 mls of the relevant solution. The mixtures were incubated at 37° C. for 2 hours and then washed 3 times to provide a modified cell suspension.
The modified cell suspensions were prepared in 0.8% in Celpresol LISS™ suitable for BioVue serology cards. A volume of 0.05 mls of CSL monoclonal anti-A (026129801) followed by 0.05 mls of modified cell suspension was applied to each card. Reactions were recorded following centrifugation in a BioVue cassette centrifuge (Table 29).
There was no significant gain with CMG(2) compared with CMG(4). There was a minor, but not significant change for MCMG (2).

[1] = system: sera reactive with modified RBCs; test: Neutralisation of reactive sera with free peptide, retested against modified RBCs (BioVue); format: cell-based, human; design: key: 0 or ‘−’ no agglutination; 0 or ‘−’ no agglutination; 1+ or 3=very weak agglutination; 1+ or 3=very weak agglutination; 2+ or 5=weak agglutination; 2+ or 5=weak agglutination; 3+ or 8=moderate strong agglutination; 3+ or 8=moderate strong agglutination; 4+ or 10/12=strong agglutination; 4+ or 10/12=strong agglutination; 4+ or 10/12=strong agglutination
Excerpt: Optionally, where F is a peptide, the method includes the preliminary step of: • Adding an amount of the peptide to the sample of the serum; where the amount of the peptide is sufficient to neutralize non-specific agglutination or confirm specificity of the reactive antibody.

[2] = system: Miltenberger Antibody Positive Panel; test: Reactivity of modified RBCs against the Miltenberger Antibody Positive Panel; format: cell-based, human; design: key to score vs panel 15 TAP2 / score vs panel 4 T7202 / score vs panel 8 T5896 / score vs panel 2 T217 / score vs panel 3 T165 / score vs panel 14 TAP1 / score vs panel 10 Mia / score vs panel 11 Mur / score vs panel 12 Gam / score vs panel 6 T6025 / score vs panel 7 T8445 / score vs panel 9 MIII / score vs panel 13 BoxH / reactivity with Panel Serum #7 (T8445) / agglutination score, Panel Serum #7 (T8445): 0 or ‘−’ no agglutination; 0 or ‘−’ no agglutination; 1+ or 3=very weak agglutination; 1+ or 3=very weak agglutination; 2+ or 5=weak agglutination; 2+ or 5=weak agglutination; 3+ or 8=moderate strong agglutination; 3+ or 8=moderate strong agglutination; 4+ or 10/12=strong agglutination; 4+ or 10/12=strong agglutination; 4+ or 10/12=strong agglutination
Procedure: (§1) Red blood cells are modified by mixing 1 part by volume of washed packed red blood cells with 1 part by volume of peptide-lipid construct dispersed at a concentration of 10 to 1000 pg/ml in cell media (Celpresol™).
(§2) The suspensions are either: • 1. incubated for 2 hours at 37° C. before being washed and suspended in a cell medium for serological analysis at a concentration of 0.8 to 3% (Method 1); or • 2. incubated for 3 to 4 hours at room temperature (circa 25° C.) followed by 18 hours at 4° C. before being washed and suspended in a cell medium for serological analysis at a concentration of 0.8 to 3% (Method 2).
(§3) Serological reactions are graded or scored by either of two established systems (0 or ‘−’ no agglutination, 1+ or 3=very weak agglutination, 2+ or 5=weak agglutination, 3+ or 8=moderate strong agglutination, 4+ or 10/12=strong agglutination)
(§4) Serological platforms used are Tube (addition of reagents and reactants into plastic or glass serology tubes and after appropriate incubations, washing and centrifugation observing reactions macroscopically by eye and a 10× magnification eyepiece and scoring) and BioVue™ (addition of reactants into cassettes containing beads (including some reactants) and after appropriate incubations and centrifugation observing the reaction patterns trapped within the Gel matrix). BioVue is the serological column agglutination platform of Ortho-Clinical Diagnostics. Diamed is the serological column agglutination platform of Diamed AG.

antibody negative serums = test: False positive reactions of modified RBCs with antibody negative serums/plasma; format: cell-based, human; design: key to Reaction score BioVue AHG, PAC samples 1-46, 49, 50, 52, 53 / Reaction score BioVue AHG, PAC sample 47 / Reaction score BioVue AHG, PAC sample 48 / Reaction score BioVue AHG, PAC sample 51 / agglutination score, T series serum 2 / agglutination score, T series serum 42 / agglutination score, T series serum 63 / agglutination score, T series serum 62 / agglutination score, T series serum 7 / agglutination score, T series serum 20 / agglutination score, T series serum 48 / agglutination score, T series serum 22 / agglutination score, T series serum 39 / agglutination score, T series serum 23 / agglutination score, T series serum 30 / agglutination score, T series serum 4 / agglutination score, T series serum 31 / agglutination score, T series serum 44 / agglutination score, T series serum 61 / agglutination score, T series serum 18 / agglutination score, T series serum 21 / agglutination score, T series serum 28 / agglutination score, T series serum 55 / agglutination score, false positive serum T18 / agglutination score, false positive serum T21 / agglutination score, false positive serum T28 / agglutination score, false positive serum T55 / agglutination score, false positive serum T78 / agglutination score, false positive serum T92: 0 or ‘−’ no agglutination; 0 or ‘−’ no agglutination; 1+ or 3=very weak agglutination; 1+ or 3=very weak agglutination; 2+ or 5=weak agglutination; 2+ or 5=weak agglutination; 3+ or 8=moderate strong agglutination; 3+ or 8=moderate strong agglutination; 4+ or 10/12=strong agglutination; 4+ or 10/12=strong agglutination; 4+ or 10/12=strong agglutination; settings: BioVue AHG cards
[3] = system: Miltenberger antibody positive sera; test: BioVue AHG card column agglutination serology of modified red blood cells; format: cell-based, human; design: key: 0 or ‘−’ no agglutination; 0 or ‘−’ no agglutination; 1+ or 3=very weak agglutination; 1+ or 3=very weak agglutination; 2+ or 5=weak agglutination; 2+ or 5=weak agglutination; 3+ or 8=moderate strong agglutination; 3+ or 8=moderate strong agglutination; 4+ or 10/12=strong agglutination; 4+ or 10/12=strong agglutination; 4+ or 10/12=strong agglutination; settings: construct 100 μg/ml
Procedure: as §1, §2, §3, §4

[4] = cells modified at 500 μg/ml (Method 1), BioVue cards
[5] = serum neutralised with peptide SSQTNDKHKRDTY (10 μL of 1 mg/ml to 50 μL, 30 minutes 37° C.), BioVue cards
[6] = cells modified at 50 μg/ml, 2 hour 37° C.
[7] = cells modified with the peptide-lipid construct M28, AHG test in BioVue

Adipate
8: Serological result, anti-A Neat (CSL monoclonal anti-A; construct 5 μM) | Serological result, reciprocal of dilution of anti-A 2 (CSL monoclonal anti-A; construct 5 μM) | Serological result, reciprocal of dilution of anti-A 8 (CSL monoclonal anti-A; construct 10 μM) | Serological result, reciprocal of dilution of anti-A 16 (CSL monoclonal anti-A; construct 10 μM) | Serological result, reciprocal of dilution of anti-A 32 (CSL monoclonal anti-A; construct 10 μM) | Serological result, reciprocal of dilution of anti-A 64 (CSL monoclonal anti-A; construct 10 μM) | Serological result, reciprocal of dilution of anti-A 128 (CSL monoclonal anti-A; construct 50 μM) | Serological result, reciprocal of dilution of anti-A 256 (CSL monoclonal anti-A; construct 50 μM)
10: Serological result, anti-A Neat (CSL monoclonal anti-A; construct 10 μM) | Serological result, reciprocal of dilution of anti-A 2 (CSL monoclonal anti-A; construct 10 μM) | Serological result, reciprocal of dilution of anti-A 4 (CSL monoclonal anti-A; construct 10 μM) | Serological result, reciprocal of dilution of anti-A 64 (CSL monoclonal anti-A; construct 50 μM)
12: Serological result, anti-A Neat (CSL monoclonal anti-A; construct 50 μM) | Serological result, reciprocal of dilution of anti-A 2 (CSL monoclonal anti-A; construct 50 μM) | Serological result, reciprocal of dilution of anti-A 4 (CSL monoclonal anti-A; construct 50 μM) | Serological result, reciprocal of dilution of anti-A 8 (CSL monoclonal anti-A; construct 50 μM) | Serological result, reciprocal of dilution of anti-A 16 (CSL monoclonal anti-A; construct 50 μM) | Serological result, reciprocal of dilution of anti-A 32 (CSL monoclonal anti-A; construct 50 μM)
3: Serological result, reciprocal of dilution of anti-A 8 (CSL monoclonal anti-A; construct 5 μM) | Serological result, reciprocal of dilution of anti-A 128 (CSL monoclonal anti-A; construct 10 μM) | Serological result, reciprocal of dilution of anti-A 512 (CSL monoclonal anti-A; construct 50 μM)
5: Serological result, reciprocal of dilution of anti-A 4 (CSL monoclonal anti-A; construct 5 μM)

M13: DOPE peptide-lipid construct: MUTK peptide SSQTNDKHKRDTY, leader c (Cys), spacer PEG6 (SSQTNDKHKRDTYC; also: DOPE peptide-lipid construct via leader Cys, spacer PEG6)
0: agglutination score, serum #3, serum + peptide [1, 5] | agglutination score, serum #34, serum + peptide [1, 5] | agglutination score, serum #37, serum + peptide [1, 5] | agglutination score, serum #42, serum + peptide [1, 5] | score vs panel 3 T165 ([2]; Table 8, construct 250 μg/ml) | score vs panel 7 T8445 ([2]; Table 8, construct 250 μg/ml) | score vs panel 9 MIII ([2]; Table 8, construct 250 μg/ml) | score vs panel 10 Mia ([2]; Table 8, construct 250 μg/ml) | score vs panel 11 Mur ([2]; Table 8, construct 250 μg/ml) | score vs panel 12 Gam ([2]; Table 8, construct 250 μg/ml)
8: agglutination score, serum #3, serum alone [1, 4] | agglutination score, serum #34, serum alone [1, 4] | agglutination score, serum #37, serum alone [1, 4] | agglutination score, serum #42, serum alone [1, 4] | score vs panel 2 T217 ([2]; Table 8, construct 250 μg/ml) | score vs panel 4 T7202 ([2]; Table 8, construct 250 μg/ml) | score vs panel 6 T6025 ([2]; Table 8, construct 250 μg/ml) | score vs panel 13 BoxH ([2]; Table 8, construct 250 μg/ml)
3: score vs panel 8 T5896 ([2]; Table 8, construct 250 μg/ml)

M28: DOPE peptide-lipid construct: Mur peptide TYPAHTANE, leader c, spacer CMG(2) (TYPAHTANEC; also: DOPE peptide-lipid construct via leader Cys, spacer CMG(2))
0: agglutination score, T series serum 7 (antibody negative serums; [6]) | agglutination score, T series serum 18 (antibody negative serums; [6]) | agglutination score, T series serum 20 (antibody negative serums; [6]) | agglutination score, T series serum 21 (antibody negative serums; [6]) | agglutination score, T series serum 22 (antibody negative serums; [6]) | agglutination score, T series serum 23 (antibody negative serums; [6]) | agglutination score, T series serum 28 (antibody negative serums; [6]) | agglutination score, T series serum 30 (antibody negative serums; [6]) | agglutination score, T series serum 39 (antibody negative serums; [6]) | agglutination score, T series serum 42 (antibody negative serums; [6]) | agglutination score, T series serum 48 (antibody negative serums; [6]) | agglutination score, T series serum 55 (antibody negative serums; [6]) | agglutination score, T series serum 62 (antibody negative serums; [6]) | agglutination score, T series serum 63 (antibody negative serums; [6]) | score vs panel 2 T217 ([2]; Table 9, construct 50 μg/ml) | score vs panel 8 T5896 ([2]; Table 9, construct 50 μg/ml)
10: agglutination score, T series serum 2 (antibody negative serums; [6]) | agglutination score, T series serum 44 (antibody negative serums; [6]) | agglutination score, T series serum 61 (antibody negative serums; [6]) | TAP 2 Serum BioVue AHG score [3] | score vs panel 4 T7202 ([2]; Table 9, construct 50 μg/ml)
8: agglutination score, T series serum 4 (antibody negative serums; [6]) | agglutination score, T series serum 31 (antibody negative serums; [6]) | Pre-neutralisation serology, PAC70 [1, 7] | Pre-neutralisation serology, TAP2 [1, 7] | score vs panel 7 T8445 ([2]; Table 9, construct 50 μg/ml) | score vs panel 15 TAP2 ([2]; Table 9, construct 50 μg/ml) | agglutination score, Panel Serum #7 (T8445) ([2]; cells modified at 50 μg/ml, 2 hour 37° C., BioVue AHG cards) | reactivity with Panel Serum #7 (T8445) ([2]; construct 50 μg/ml (2 hours, 37° C.))
5: Pre-neutralisation serology, PAC71 [1, 7] | Pre-neutralisation serology, PAC72 [1, 7]
9%: % positive (antibody negative serums; T series reactives (n = 58))
